Source: patent US12458634B2, “Stabilized liquid formations containing picosulfate” (Ferring B.V., priority 2016, dated 2025)

Experiment: Chemical stability of sodium picosulfate liquid formulations on storage (UPLC/HPLC assay of sodium picosulfate and degradation products)
Conditions: for Effect of the anti-oxidant on rate of formation of Picosulfate Benzyl Alcohol: formulations containing sodium picosulfate, magnesium citrate and malic acid; for Effect of the anti-oxidant on initial rate of formation of Picosulfate Benzyl Alcohol, Compound RRT 1.35 and Compound RRT 1.94: formulations containing sodium carboxymethylcellulose and malic acid (Table 14)
[1] = water-insoluble antioxidants (Table 21)
[2] = water-soluble antioxidants (Table 17)

| Structure (SMILES) | Effect of the anti-oxidant on rate of formation of Picosulfate Benzyl Alcohol [1] | Effect of the anti-oxidant on rate of formation of Picosulfate Benzyl Alcohol [2] | Effect of the anti-oxidant on initial rate of formation of Picosulfate Benzyl Alcohol, Compound RRT 1.35 and Compound RRT 1.94 |
| --- | --- | --- | --- |
| COc1ccc(O)c(C(C)(C)C)c1 [BHA, butylated hydroxyanisole] | effective to reduce the rate of formation |  |  |
| Cc1cc(C(C)(C)C)c(O)c(C(C)(C)C)c1 [BHT, butylated hydroxytoluene] | effective to reduce the rate of formation |  |  |
| N[C@@H](Cc1c[nH]cn1)C(=O)O [histidine] |  | effective to reduce the rate of formation |  |
| O=S([O-])S(=O)(=O)[O-].[K+].[K+] [potassium metabisulfite] |  |  | effective to reduce the initial rate of formation |
| CCCOC(=O)c1cc(O)c(O)c(O)c1 [propyl gallate] | effective to reduce the rate of formation |  |  |
| O=S([O-])S(=O)(=O)[O-].[Na+].[Na+] [sodium metabisulfite] |  | effective to reduce the rate of formation | effective to reduce the initial rate of formation |
| Cc1c(C)c2c(c(C)c1O)CC[C@@](C)(CCC[C@H](C)CCC[C@H](C)CCCC(C)C)O2 [α-tocopherol] | effective to reduce the rate of formation |  |  |
